# Test results: a melting point compilation (Tetko et al.)
row,Compound,melting point
1,C=CCC(NC(=O)OCc1ccccc1)c1ccccc1 (centres undefined),65 to 67 °C
2,CCS(=O)(=O)CCOc1ccc(S(=O)(=O)Cl)cc1,92 to 94 °C
3,CSc1ccc(C(C)=O)cc1F,71 to 73 °C
4,Nc1cccc(OCc2cccnc2)c1,97 to 99 °C
5,ClCc1nc(-c2cccs2)n[nH]1,159 to 161 °C
6,O=C(O)c1csc(-c2nnc[nH]2)n1,299 to 301 °C
7,Cc1cc(N)ccc1C(=O)O,154 to 156 °C
8,COc1ccc([N+](=O)[O-])cc1CN=[N+]=[N-],33 to 35 °C
9,COc1ccc(OC)c(S(=O)(=O)N2CCNCC2)c1,103 to 105 °C
10,O=c1c2ccccc2nc(S)n1-c1ccc(Cl)cc1,336 to 338 °C
11,CCC(=O)Nc1cccc(N)c1C,116 to 118 °C
12,CC(Br)C(=O)c1ccc(Cl)cc1 (centres undefined),68 to 70 °C
13,CCOC(=O)c1cnn2cc(Br)cnc12,141 to 143 °C
14,CCOC(=O)c1cc(S(C)(=O)=O)ccc1N,130 to 132 °C
15,Nc1cccc(S(=O)(=O)C2CCCC2)c1,117 to 119 °C
16,CN(C)S(N)(=O)=O,94 to 96 °C
17,O=C(O)COc1ccc(F)c(Cl)c1,106 to 108 °C
18,O=C(CCl)Nc1ccccc1I,38 to 40 °C
19,N#Cc1c[nH]c(C(=O)C(Cl)(Cl)Cl)c1,134 to 136 °C
20,CCN(CC)S(=O)(=O)c1c[nH]c(C(=O)O)c1,250 to 252 °C
21,Cc1cc2ncn(C(C)C(N)=S)c2cc1C (centres undefined),204 to 206 °C
22,O=C(Nc1cccc([N+](=O)[O-])c1)OCC(F)(F)F,98 to 100 °C
23,COc1ccc(C=O)cc1C#N,119 to 121 °C
24,Cc1c(C(=O)O)oc2c(Cl)cccc12,229 to 231 °C

row,Compound,melting point
1,COc1cc(CN)ccc1OCCO,113 to 115 °C
2,N#CC1(c2ccc3c(c2)OCO3)CC1,73 to 75 °C
3,CNS(=O)(=O)c1cccc(C(C)=O)c1,96 to 98 °C
4,CC(N)=NS(=O)(=O)c1cc(Br)ccc1Br,182 to 184 °C
5,CC(C)(C)OC(=O)NC(Cc1ccccc1)C(O)C(F)(F)F (centres undefined),149 to 151 °C
6,O=S1(=O)C=CCC1,62 to 64 °C
7,CC1=NS(=O)(=O)NC(C)=C1CC(=O)O,185 to 187 °C
8,CCCC1CCc2nc(N)sc2C1 (centres undefined),78 to 80 °C
9,NS(=O)(=O)Cc1ccc(Cl)cc1Br,169 to 171 °C
10,ClCc1ccc(-c2ccccc2)cc1,71 to 73 °C
11,COc1cc(C=O)cc2sc(=O)oc12,160 to 162 °C
12,CC(C)(O)c1ccc(O)cc1,104 to 106 °C
13,Cn1cc(CC(=O)O)c2ccccc21,126 to 128 °C
14,Cc1c(Cl)ccc2ccc(N)nc12,134 to 136 °C
15,CON(C)S(=O)(=O)c1cccc(C(=O)O)c1,134 to 138 °C
16,COc1ccc(C(=O)CC(C)=O)cc1,52 to 54 °C
17,O=C(OCc1ccccc1)N1CCC(S(=O)(=O)Cl)CC1,62 to 64 °C
18,COC(=O)c1csc(Br)c1,37 to 39 °C
19,COCCCNC(=O)CC#N,63 to 65 °C
20,CC(C)C(C(=O)O)c1cccc(Cl)c1 (centres undefined),82 to 84 °C
21,Cn1c(O)c([N+](=O)[O-])c(=O)c2ccccc21,159 to 161 °C
22,CC(C)(C)OC(=O)NC(CC(=O)O)C1CC1 (centres undefined),111 to 113 °C
23,CN(C)C1CCN(c2ccc(N)cc2F)CC1,124 to 126 °C
24,CS(=O)(=O)c1ccc(F)c(NC(=O)CCl)c1,126 to 128 °C

row,Compound,melting point
1,NCCNc1cn[nH]c(=O)c1Cl,195 to 197 °C
2,Cn1cc(-c2nnc(N)o2)cn1,253 to 255 °C
3,N=c1sccn1CC(=O)O,243 to 247 °C
4,Cc1cc(Cl)c(O)cc1OCC(=O)O,131 to 133 °C
5,Cc1csc(=O)[nH]1,98 to 100 °C
6,N#CCC1CC2=C(CCCC2=O)O1 (centres undefined),104 to 106 °C
7,CC(=O)CC(=O)Nc1ccc(C)cc1Cl,89 to 91 °C
8,O=C(CCl)Nc1cccc(C(=O)N2CCSCC2)c1,152 to 154 °C
9,COc1ccccc1CNC(=O)n1ccnc1,128 to 130 °C
10,O=C(O)c1ccc(NS(=O)(=O)c2ccc(F)cc2)cc1,240 to 242 °C
11,O=C(CCl)c1c(-c2ccc(F)cc2)[nH]c2ccccc12,158 to 160 °C
12,Cc1ccc(S(=O)(=O)Nc2ccc(O)cc2)s1,106 to 108 °C
13,O=C(CCl)NCCc1cccc2ccccc12,104 to 106 °C
14,Nc1nc2ccc(Br)cn2n1,183 to 185 °C
15,Cc1cc(NS(=O)(=O)c2cccc(C(=O)O)c2)no1,195 to 197 °C
16,CC(C)(C)CC(=O)Nc1ccc(Cl)c(C(=O)O)c1,214 to 216 °C
17,COC(=O)c1cc(S(N)(=O)=O)cnc1Cl,60 to 62 °C
18,Nc1nnc(-c2cccs2)[nH]1,202 to 204 °C
19,CC(Cc1nnc(S)o1)c1ccccc1 (centres undefined),102 to 104 °C
20,COc1ccc(-c2n[nH]c(S)nc2=O)cc1,284 to 286 °C
21,CCOc1cc(C(=O)O)ccn1,171 to 173 °C
22,COc1ccc(CCN2C(=O)NC(=O)C2=O)cc1,179 to 181 °C
23,COC(=O)c1ccc(CCC(=O)O)cc1,113 to 115 °C
24,CNc1cc(C(=O)OC)ccc1[N+](=O)[O-],137 to 139 °C

row,Compound,melting point
1,Cc1ccc(Cl)c2ccc(=O)[nH]c12,254 to 256 °C
2,Cc1nn(-c2ccc(F)cc2F)c(C)c1CC(=O)O,163 to 165 °C
3,O=C(O)c1cnc2ccccc2c1SC1CCCC1,111 to 113 °C
4,CS(=O)(=O)NCC#N,69 to 71 °C
5,Cc1cc(N)ccc1N1C(=O)CCC1=O,167 to 169 °C
6,COC(=O)N(C)c1ccccc1C(=O)O,138 to 140 °C
7,CC(C)(C)c1ccc2cc(C(=O)O)[nH]c2c1,157 to 159 °C
8,COC(=O)C(C)(N)C(c1ccccc1)c1ccccc1 (centres undefined),68 to 70 °C
9,Cc1csc(NC(C)C(=O)O)n1 (centres undefined),189 to 191 °C
10,O[C@@H]1CCNC1,15 to 17 °C
11,CC1Oc2ccc(Br)cc2NC1=O (centres undefined),189 to 191 °C
12,Cc1ccc(C(=O)NC=C(Cl)Cl)cc1,96 to 98 °C
13,O=Cc1cnn(CC(F)(F)F)c1,56 to 58 °C
14,Nc1ccc(N2CCSCC2)cc1,109 to 111 °C
15,Nc1ccc(F)c(N(S(=O)(=O)c2ccccc2)S(=O)(=O)c2ccccc2)c1,159 to 161 °C
16,CC(Cl)C(=O)NCc1ccccc1Cl (centres undefined),88 to 90 °C
17,N#CN=C1CCCN1,126 to 128 °C
18,Cn1c(CC#N)nc2ccccc21,129 to 131 °C
19,N#CC(Cl)(Cl)c1nc2ccccc2s1,66 to 68 °C
20,O=C1CCCC(C(=O)O)N1 (centres undefined),94 to 96 °C
21,N#CCC(=O)Nc1ccc(C(=O)O)cc1,195 to 197 °C
22,CN(CC(=O)Nc1ccccc1C(F)(F)F)C(=O)CCl,123 to 125 °C
23,CC1C(=O)NCCN1C(=O)c1ccccc1 (centres undefined),146 to 148 °C
24,COCc1nc(C(=O)O)cs1,106 to 108 °C

row,Compound,melting point
1,CN(C)S(=O)(=O)c1ccc(NCCO)c(C(=O)O)c1,176 to 178 °C
2,Cc1cc2occ(CC(=O)O)c2cc1C,133 to 135 °C
3,CCOc1cc(N2CCC(O)CC2)ccc1[N+](=O)[O-],109 to 111 °C
4,COc1ccc2c(c1)NC(=O)C2O (centres undefined),189 to 191 °C
5,COc1ccccc1NC(=O)c1ccc(N)cc1,162 to 164 °C
6,COc1ccc2c(c1)C(=NO)C(=O)N2,236 to 238 °C
7,Cc1nn(-c2cccc(Cl)c2)nc1C(=O)O,202 to 204 °C
8,O=C(O)c1cnc(C2CCCO2)s1 (centres undefined),139 to 141 °C
9,Cc1ccc(C(N)=O)c(O)c1,181 to 183 °C
10,O=C(O)COc1ccccc1OCc1ccccc1,87 to 89 °C
11,O=C(O)CCn1ncc2ccc([N+](=O)[O-])cc21,151 to 153 °C
12,CS(=O)(=O)N1CCC(C(=O)O)CC1,159 to 161 °C
13,O=C(O)COc1ccc(Oc2ccccn2)cc1,154 to 156 °C
14,NNC(=O)CC1CCS(=O)(=O)C1 (centres undefined),104 to 106 °C
15,COC(=O)C(=O)CC(=O)c1ccccc1Br,61 to 63 °C
16,O=C(O)c1csc(-c2cnn(-c3ccccc3)c2)n1,202 to 204 °C
17,Nc1ncncc1-c1ccccc1,155 to 157 °C
18,COC(=O)c1cc(S(=O)(=O)Cl)cn1C,78 to 80 °C
19,CS(=O)(=O)c1cccc(C(=O)c2ccc(Cl)cc2)c1,107 to 109 °C
20,CS(=O)c1ccccc1N (centres undefined),156 to 158 °C
21,COC(=O)C1CCc2ccccc2C1=O (centres undefined),71 to 73 °C
22,N#Cc1ccc(Oc2cccnc2)cc1,50 to 52 °C
23,NC(=NO)c1ccc(Br)o1,129 to 131 °C
24,NNc1ncnc2cc(-c3ccc(F)cc3)sc12,237 to 239 °C

row,Compound,melting point
1,Cc1cc(C(=O)CCl)c(C)n1NC(=O)c1ccccc1,141 to 143 °C
2,O=C(O)c1cc(/C=C/c2cccnc2)nc2ccc(Br)cc12,335 to 337 °C
3,COc1ccc2oc(C=O)cc2c1,59 to 61 °C
4,Cn1cc(C(=O)O)c(C(C)(C)C)n1,140 to 142 °C
5,CCOC(=O)C1=NN(CC)C(=O)C1,135 to 137 °C
6,Cc1ccc(S(C)(=O)=O)c(N)c1,103 to 105 °C
7,Cc1cc(COc2ccc(C(=O)O)cc2Br)on1,209 to 211 °C
8,NCC(O)c1ccc(Cl)c(F)c1 (centres undefined),54 to 56 °C
9,CNC(=O)c1cccc(N)c1,122 to 124 °C
10,O=C(CCl)c1sccc1Br,75 to 77 °C
11,O=C(O)C1CC1c1cccc(Cl)c1Cl (centres undefined),124 to 126 °C
12,CCOc1ccc2nc(NS(=O)(=O)c3cc(C(=O)O)c(Cl)cc3Cl)sc2c1,163 to 165 °C
13,O=C(O)c1cc2ccccc2c2cccnc12,200 to 202 °C
14,Cc1ccnc2nc(C(=O)O)nn12,240 to 242 °C
15,CS(=O)(=O)Nc1ccc(S(=O)(=O)Cl)c(F)c1,149 to 151 °C
16,Cc1ccc(F)cc1-c1nc2ccccc2[nH]1,223 to 225 °C
17,O=CN1CC(=O)NC(=O)C1,213 to 215 °C
18,O=C(O)c1cccc(N2CCCNC2=O)c1,277 to 279 °C
19,COc1cc(C#N)ccc1OCC(=O)O,154 to 156 °C
20,Cc1cc(F)c(S(N)(=O)=O)cc1F,132 to 134 °C
21,O=C(O)CSc1nnc(-c2cccs2)n1C1CC1,229 to 231 °C
22,CC(C)(C)OC(=O)c1ccc(N)cc1,99 to 101 °C
23,Nc1ccc(N2CCCC2)nc1,83 to 85 °C
24,NCCC(O)(c1ccccc1)C(F)(F)F (centres undefined),110 to 112 °C
